Assay results taken from publication PMC10386709, “Preparation of Alcohol Dehydrogenase–Zinc Phosphate Hybrid Nanoflowers through Biomimetic Mineralization and Its Application in the Inhibitor Screening” (Molecules, 2023).

T1: Alcohol dehydrogenase (ADH) (Saccharomyces cerevisiae, UniProt P00330)
T1 construct: gene ADH1
T1 sequence (P00330 2-348): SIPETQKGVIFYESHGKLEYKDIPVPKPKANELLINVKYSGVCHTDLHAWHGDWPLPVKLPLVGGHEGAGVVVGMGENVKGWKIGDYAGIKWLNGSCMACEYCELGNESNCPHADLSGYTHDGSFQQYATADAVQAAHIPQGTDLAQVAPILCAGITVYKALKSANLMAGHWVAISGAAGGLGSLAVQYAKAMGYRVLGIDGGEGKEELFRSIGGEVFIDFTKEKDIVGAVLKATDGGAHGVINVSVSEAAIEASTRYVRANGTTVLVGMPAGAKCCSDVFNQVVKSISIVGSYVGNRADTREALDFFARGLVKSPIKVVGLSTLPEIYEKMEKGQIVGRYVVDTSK

B1: Alcohol dehydrogenase (ADH) (Saccharomyces cerevisiae S288C) (protein)
chain: T1 sequence (P00330 2-348)

Key:
[1] = target: T1, Alcohol dehydrogenase (ADH); assay: NADH absorbance at […] nm, immobilized ADH nanoflowers, % inhibition at […]; format: biochemical
[2] = target: T1, Alcohol dehydrogenase (ADH); assay: NADH absorbance at […] nm, dose-response; free ADH (IC50 […] on immobilized ADH HNFs); format: biochemical
[3] = target: T1, Alcohol dehydrogenase (ADH); assay: NADH absorbance at […] nm, immobilized ADH nanoflowers, % inhibition at […] (weak); format: biochemical
purified protein = substrate: NC(=O)c1ccc[n+]([C@@H]2O[C@H](COP(=O)([O-])OP(=O)(O)OC[C@H]3O[C@@H](n4cnc5c(N)ncnc54)[C@H](O)[C@@H]3O)[C@@H](O)[C@H]2O)c1; assay: purified protein; format: biochemical, Saccharomyces cerevisiae; conditions: Zn2+

Molecule | inhibition at 1500 µM [1] | inhibition at 1500 µM ([1]; read-out: Inhibition (%)) | further results
O=C1C[C@@H](c2ccc(O)cc2)Oc2cc(O)cc(O)c21 [naringenin] | 75.5 ± 2.1% |  | 
COc1cc(C(=O)O)ccc1O [vanillic acid] | 55.1 ± 1% |  | 
CNC(=C[N+](=O)[O-])NCCSCc1ccc(CN(C)C)o1 [ranitidine] |  |  | IC50 [2]: 390 µM
O=c1oc2c(O)c(O)cc3c(=O)oc4c(O)c(O)cc1c4c23 [ellagic acid] |  | 58.2 ± 10.3% | 
O=c1cc(-c2ccc(O)cc2)oc2cc(O)cc(O)c12 [apigenin] |  | 52.5 ± 5.5% | 
O=C(O)c1cc(O)c(O)c(O)c1 [gallic acid] |  | 61.9 ± 2.8% | 
Oc1cc(O)c2c(c1)O[C@H](c1ccc(O)c(O)c1)[C@@H](O)C2 [Cianidanol] |  |  | inhibition at 1500 µM [3]: 34.9 ± 4%
O=C(O)c1ccc(O)c(O)c1 [protocatechuic acid] | 68.3 ± 2.9% |  | 
B1 |  |  | Km (purified protein): 5.33 mM
